According to paper PMC10147923, “Pain-causing stinging nettle toxins target TMEM233 to modulate NaV1.7 function” (Nature Communications, 2023):
“And” between values parts separate entries of the source, which are not always exact repeats. Equal values may be shown once. Read-outs that look alike come from different tables or passages of the source. Positions of bridges follow the written chain, without caps; N, C: chain ends. Residues, ends and D or L forms follow the SMILES beside them. *: point of attachment. Biotin = O=C1N[C@H]2[C@H](CS[C@H]2CCCCC(=O)*)N1; PEG4 = NCCOCCOCCOCCOCCC(=O)O

What was measured:
[1] = target: T1, NaV1.7 (Homo sapiens, UniProt Q15858); assay: Recovery from fast inactivation, HEK293-NaV1.7 with peptide in intracellular solution; format: cell-based
T1 sequence (Q15858 whole entry): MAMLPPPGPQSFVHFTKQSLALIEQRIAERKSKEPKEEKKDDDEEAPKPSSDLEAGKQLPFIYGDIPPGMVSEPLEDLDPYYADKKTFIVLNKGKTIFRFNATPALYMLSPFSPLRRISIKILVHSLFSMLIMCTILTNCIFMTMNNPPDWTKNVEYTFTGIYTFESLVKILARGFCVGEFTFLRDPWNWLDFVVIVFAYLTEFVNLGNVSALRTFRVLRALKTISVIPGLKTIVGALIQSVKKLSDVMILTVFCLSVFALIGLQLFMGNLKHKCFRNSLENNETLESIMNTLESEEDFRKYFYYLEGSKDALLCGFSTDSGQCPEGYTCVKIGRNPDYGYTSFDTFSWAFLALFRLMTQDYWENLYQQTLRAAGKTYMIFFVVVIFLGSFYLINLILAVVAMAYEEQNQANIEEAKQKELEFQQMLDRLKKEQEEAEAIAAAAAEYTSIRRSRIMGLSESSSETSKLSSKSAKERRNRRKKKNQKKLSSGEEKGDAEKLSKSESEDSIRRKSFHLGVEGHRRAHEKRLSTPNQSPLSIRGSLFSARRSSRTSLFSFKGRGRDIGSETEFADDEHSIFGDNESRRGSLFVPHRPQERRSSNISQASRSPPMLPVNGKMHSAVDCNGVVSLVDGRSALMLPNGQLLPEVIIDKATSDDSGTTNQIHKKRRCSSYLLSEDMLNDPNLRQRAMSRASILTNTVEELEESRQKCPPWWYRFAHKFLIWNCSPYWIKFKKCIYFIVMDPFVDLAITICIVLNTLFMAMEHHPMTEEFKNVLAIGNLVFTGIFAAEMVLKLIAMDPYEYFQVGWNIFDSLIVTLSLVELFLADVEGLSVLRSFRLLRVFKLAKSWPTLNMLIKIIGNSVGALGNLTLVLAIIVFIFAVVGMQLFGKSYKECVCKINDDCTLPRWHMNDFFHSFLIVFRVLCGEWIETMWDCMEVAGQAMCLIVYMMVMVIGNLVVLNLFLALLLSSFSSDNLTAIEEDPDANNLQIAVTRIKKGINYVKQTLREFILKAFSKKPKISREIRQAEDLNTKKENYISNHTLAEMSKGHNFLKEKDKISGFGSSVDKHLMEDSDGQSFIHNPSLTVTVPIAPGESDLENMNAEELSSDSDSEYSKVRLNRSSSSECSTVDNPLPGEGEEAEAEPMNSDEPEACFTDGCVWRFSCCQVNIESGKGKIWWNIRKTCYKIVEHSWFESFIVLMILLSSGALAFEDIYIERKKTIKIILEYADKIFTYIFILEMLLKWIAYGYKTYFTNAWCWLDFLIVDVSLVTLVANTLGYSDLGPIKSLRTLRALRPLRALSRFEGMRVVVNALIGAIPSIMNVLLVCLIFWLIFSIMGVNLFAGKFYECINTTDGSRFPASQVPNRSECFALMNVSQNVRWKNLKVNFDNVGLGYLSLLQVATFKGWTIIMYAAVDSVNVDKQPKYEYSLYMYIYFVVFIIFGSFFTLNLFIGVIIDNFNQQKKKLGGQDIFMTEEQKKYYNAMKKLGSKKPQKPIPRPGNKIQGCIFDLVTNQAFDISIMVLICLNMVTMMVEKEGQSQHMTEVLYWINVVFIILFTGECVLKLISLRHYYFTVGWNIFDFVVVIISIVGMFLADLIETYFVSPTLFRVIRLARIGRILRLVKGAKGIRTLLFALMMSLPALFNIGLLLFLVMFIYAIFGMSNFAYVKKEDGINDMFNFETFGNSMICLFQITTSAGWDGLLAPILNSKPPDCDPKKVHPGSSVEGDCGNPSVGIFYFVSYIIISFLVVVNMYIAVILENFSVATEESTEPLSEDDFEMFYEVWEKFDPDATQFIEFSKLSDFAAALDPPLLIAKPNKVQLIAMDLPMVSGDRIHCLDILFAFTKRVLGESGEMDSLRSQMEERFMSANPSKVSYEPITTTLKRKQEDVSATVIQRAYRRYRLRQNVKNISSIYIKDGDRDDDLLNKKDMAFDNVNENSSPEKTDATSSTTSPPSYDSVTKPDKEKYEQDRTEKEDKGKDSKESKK
T1 sequence (Q07699 19-218, further chain): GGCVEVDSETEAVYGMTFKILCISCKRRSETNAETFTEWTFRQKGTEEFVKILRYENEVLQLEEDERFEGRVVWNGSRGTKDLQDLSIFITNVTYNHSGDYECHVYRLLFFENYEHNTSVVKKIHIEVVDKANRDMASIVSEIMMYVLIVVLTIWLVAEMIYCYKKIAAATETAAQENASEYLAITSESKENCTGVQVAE
Experimental: To determine recovery from fast inactivation, a 20 ms pulse to 0 mV from a holding potential of −90 mV was used to induce fast inactivation. A subsequent recovery period, ranging from 1 ms to 2216 ms in 50% increments at −90 mV, was followed by a last 20 ms test pulses to 0 mV to determine the time-dependence of recovery from fast inactivation. The proportion of available channels was determined by normalizing peak currents from the last to the first pulse. A two-phase exponential equation was fit to the normalized current, plotted as a function of time, to determine the time constants τ1 and τ2 of recovery from fast inactivation.

[2] = target: TMEM233 (Homo sapiens, UniProt B4DJY2); assay: ExTxA-488 binding assay, TMEM233
Chain of TMEM233 (B4DJY2 whole entry): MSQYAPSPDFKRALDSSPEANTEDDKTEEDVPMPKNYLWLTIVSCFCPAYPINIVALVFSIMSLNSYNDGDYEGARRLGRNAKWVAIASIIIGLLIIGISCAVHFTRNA
Experimental: (§1) HEK293 cells (untransfected controls, or transfected with TMEM233, NaV1.7 or both TMEM233 and NaV1.7), were incubated in suspension with ExTxA conjugated to Alexa Fluor 488 (ExTxA-488) in assay buffer (250 mM NaCl, 25 mM HEPES, pH 7) for 30 min at 4 °C. Unbound ExTxA-488 was removed by washing cells three times with assay buffer. Cells were plated at a density of 100,000 cells per well in a volume of 50 µL in a 384-well OptiPlate (PerkinElmer, Massachusetts, USA). Fluorescence intensity (excitation 490 nm; emission 520 nm) was assessed using an Infinite M1000 Pro (Tecan, Männedorf, Switzerland). Concentration-response curves were fitted using the log (agonist) vs. response—variable slope (four parameters) equation and normalized to the largest fitted top from amongst the four groups as computed by GraphPad Prism Version 9.4.1.

[3] = test system: HEK293 cells; assay: ExTxA-488 binding assay, untransfected/mock HEK293; set-up: species or system human
Experimental: as §1

[4] = target: T2, NaV1.7/TMEM233 (Homo sapiens, UniProt B4DJY2+Q15858); format: cell-based
[5] = target: T1, NaV1.7; assay: ExTxA-488 binding assay, NaV1.7
Experimental: as §1

[6] = target: T2, NaV1.7/TMEM233; format: cell-based; details: best-fit value, log(agonist) vs. response -- variable slope (four parameters)
Experimental: HEK293-NaV1.7 cells were transfected with TMEM233, CRELD1, LMAN2L, MMGT1, RNF121 and STT3B and co-transfected with five plasmids coding for the Glycosylphosphatidylinositol (GPI) complex (GPAA1, PIGK, PIGS, PIGU, PIGT) using Lipofectamine 2000. After 24 h, transfected cells were harvested and plated at a density of 10,000–15,000 cells per well on black-walled 384-well imaging plates. Plated cells were cultured for a further 24 h at 37 °C and 5% CO2. FLIPR (Fluorescent Imaging Plate Reader) Red membrane potential assay dye (Molecular Devices, California, USA) was diluted in physiological salt solution according to the manufacturer’s instructions (PSS, in mM: NaCl 140, glucose 11.5, HEPES 10, KCl 5.9, MgCl2 1.4, NaH2PO4 1.2, NaHCO3 5, CaCl2 1.8, pH 7.4). Growth medium was removed from the plate and replaced with 20 µL of FLIPR Red membrane potential assay dye per well and incubated in the dark at 37 °C for 60 min. […] Fluorescence responses to ExTxA were computed as the maximum change in fluorescence over baseline (ΔF/F0) using ScreenWorks (Molecular Devices, Version 5.1.2.94).

[7] = target: T2, NaV1.7/TMEM233; assay: ExTxA-488 binding assay, NaV1.7/TMEM233
Experimental: as §1

[8] = target: T1, NaV1.7; format: cell-based
[9] = test system: total and TTX-s NaV current in wild-type DRG neurons; assay: Persistent total NaV current, manual patch clamp, mouse DRG neurons; format: cell-based
[10] = test system: NaV1.7 endogenously expressed in TE-671 cells; assay: Persistent NaV current, TE-671 cells (automated patch clamp); format: cell-based
[11] = test system: TE-671 cells; details: veratridine 5 µM, ouabain 20 nM
[12] = target: T2, NaV1.7/TMEM233; assay: Proximity ligation assay NaV1.7 and TMEM233; details: Fig 5e
Experimental: HEK293 cells stably expressing β1/β2 were transiently transfected in T25 flasks using Lipofectamine 2000 with plasmids encoding GFP (0.35 μg) as a transfection control, as well as N-terminal HA-tagged TMEM233 (0.35 μg) and N-terminal FLAG- tagged NaV1.7 (1.0 μg) alone or in combination. The total amount of plasmid DNA/T25 flask was kept constant at 1.7 μg flask using empty pcDNA3.1 plasmid as required. After 24 h incubation at 37 °C, cells were plated on PDL-coated glass coverslips and cultured for a further 24 h. Cells were washed once using sterile phosphate-buffered saline, fixed with 4% formaldehyde for 5 min, permeabilized with 0.1% Triton-X 100 in PSS, blocked using proximity ligation bocking buffer (Sigma DUO82007) and incubated for 1 h with anti-FLAG (1:1000; Sigma F1804) and anti-HA (1:1000; Sigma H6908) antibodies in Duolink antibody diluent. Permeabilized cells were then washed twice with wash buffer A at room temperature for 5 min. Anti-mouse PLUS (Sigma DUO92001) and anti-rabbit MINUS (Sigma DUO92005) probes were diluted 1:5 in Duolink antibody diluent and incubated with cells for 1 h at 37 °C. Cells were then washed with wash buffer A at room temperature for 5 min twice and incubated with ligase diluted 1:40 in ligation buffer. After incubation at 37 °C for 30 mins, cells were washed twice with wash buffer A. Polymerase was diluted 1:80 in amplification buffer and incubated with cells for 100 mins at 37 °C. Cells were subsequently washed with wash buffer B twice for 10 mins and mounted with Duolink In Situ mounting media with DAPI. Cells were imaged on a Zeiss AxioImage M2 with Apotome2 and Axiocam 506 camera. Proximity ligation assay signal (PLA particles) in GFP-positive cells were quantified using ImageJ in collapsed stacks from 3–6 random images obtained per coverslip (Image>Type>8-bit; Image>Adjust>Threshold; Image>Analyze>Analyze Particles). Particles size was set to 0.0003–∞ and circularity to 0.00–1.00. The average number of particles/GFP-positive cells from three independent experiments was analyzed by One-way ANOVA.

1-41 TMEM233 (MSQYAPSPDFKRALDSSPEANTEDDKTEEDVPMPKNYLWLT; UniProt B4DJY2 1-41, looked up, fragment)
Tau Fast, difference between means (1-41 TMEM233 - BSA control) ± SEM [1]: 3.270 ± 1.361
Tau Fast, individual values [1]: 5.876 and 7.835 and 7.406 and 14.82 and 9.055 and 12.01 and 6.932 and 17.51 and 10.21
Tau Fast, mean [1]: 10.18

CC[C@H](C)[C@@H]1NC(=O)[C@H](CCCNC(=N)N)NC(=O)[C@H](Cc2ccccc2)NC(=O)[C@H](CC(C)C)NC(=O)[C@H](CO)NC(=O)[C@@H]2CSSC[C@@H]3NC(=O)[C@H]([C@@H](C)O)NC(=O)[C@H](CSSC[C@H](NC(=O)[C@H](CCCNC(=N)N)NC(=O)[C@@H]4CCCN4C(=O)[C@H](CC(C)C)NC(=O)[C@@H](N)CCCCn4cc(CNC(=O)c5ccc(-c6c7ccc(=N)c(S(=O)(=O)O)c-7oc7c(S(=O)(=O)O)c(N)ccc67)c(C(=O)O)c5)nn4)C(=O)N[C@@H](CC(=O)O)C(=O)N[C@@H](CO)C(=O)N4CCC[C@H]4C(=O)N[C@@H](Cc4ccccc4)C(=O)N2)NC(=O)[C@H](CCCCN)NC(=O)[C@H](CC(=O)O)NC(=O)CNC(=O)[C@H](CSSC[C@@H](C(=O)N[C@H](C(=O)N2CCC[C@H]2C(=O)N[C@@H](CC(=O)O)C(=O)N[C@H](C(=O)O)C(C)C)C(C)C)NC(=O)[C@H](CC(C)C)NC(=O)CNC(=O)[C@H](Cc2ccccc2)NC(=O)[C@H]([C@@H](C)CC)NC(=O)[C@@H]2CCCN2C(=O)[C@H](CC(C)C)NC(=O)[C@@H]2CCCN2C(=O)[C@H](C(C)C)NC3=O)NC(=O)[C@H](CC(C)C)NC(=O)CNC1=O [Alexa488-ExTxA]
HillSlope [2]: 1.703
LogEC50 [2]: -6.917
Max fluorescence ([2]; Alexa488-ExTxA 1 µM, TMEM233, mean ± SEM, n = 3): 38,681 ± 951.2 AFU
Max fluorescence ([3]; Alexa488-ExTxA 1 µM, HEK293, mean ± SEM, n = 3): 15,740 ± 2133 AFU
HillSlope ([3]; Untransfected, four-parameter fit, Top = 1): 0.9756
LogEC50 ([3]; Untransfected, four-parameter fit, Top = 1, 95% CI -5.502 to -5.307): -5.409
Best-fit parameter Bottom [4]: 0.00002
Best-fit parameter Hill slope [4]: 1.084
Best-fit parameter Top [4]: 0.8013
functional activity of tagged ExTxA [4]: retained functional activity
Max fluorescence ([5]; Alexa488-ExTxA 1 µM, NaV1.7, mean ± SEM, n = 3): 20,583 ± 3970 AFU
HillSlope ([5]; Nav1.7, four-parameter fit, Top = 1): 0.7934
LogEC50 ([5]; Nav1.7, four-parameter fit, Top = 1, 95% CI -5.409 to -4.797): -5.142
Bottom [6]: 2.016e-5
HillSlope [6]: 1.084
LogEC50 [6]: -7.29
Span [6]: 0.8012
Top [6]: 0.8013
HillSlope [7]: 1.366
LogEC50 [7]: -6.833
Max fluorescence ([7]; Alexa488-ExTxA 1 µM, NaV1.7/TMEM233, mean ± SEM, n = 3): 38,799 ± 2471 AFU

CC[C@H](C)[C@@H]1NC(=O)[C@H](CCCNC(=N)N)NC(=O)[C@H](Cc2ccccc2)NC(=O)[C@H](CC(C)C)NC(=O)[C@H](CO)NC(=O)[C@@H]2CSSC[C@@H]3NC(=O)[C@H]([C@@H](C)O)NC(=O)[C@H](CSSC[C@H](NC(=O)[C@H](CCCNC(=N)N)NC(=O)[C@@H]4CCCN4C(=O)[C@H](CC(C)C)NC(=O)CCOCCOCCOCCOCCNC(=O)CCCC[C@@H]4SC[C@@H]5NC(=O)N[C@@H]54)C(=O)N[C@@H](CC(=O)O)C(=O)N[C@@H](CO)C(=O)N4CCC[C@H]4C(=O)N[C@@H](Cc4ccccc4)C(=O)N2)NC(=O)[C@H](CCCCN)NC(=O)[C@H](CC(=O)O)NC(=O)CNC(=O)[C@H](CSSC[C@@H](C(=O)N[C@H](C(=O)N2CCC[C@H]2C(=O)N[C@@H](CC(=O)O)C(=O)N[C@H](C(=O)O)C(C)C)C(C)C)NC(=O)[C@H](CC(C)C)NC(=O)CNC(=O)[C@H](Cc2ccccc2)NC(=O)[C@H]([C@@H](C)CC)NC(=O)[C@@H]2CCCN2C(=O)[C@H](CC(C)C)NC(=O)[C@@H]2CCCN2C(=O)[C@H](C(C)C)NC3=O)NC(=O)[C@H](CC(C)C)NC(=O)CNC1=O [ExTxA-Biotin] ({Biotin-PEG4}-LPRCDSPFCSLFRIGLCGDKCTCVPLPIFGLCVPDV-OH; disulfide 4-21, 9-23, 17-32)
Bottom [6]: -0.001461
HillSlope [6]: 0.9303
LogEC50 [6]: -6.256
Span [6]: 0.7803
Top [6]: 0.7788

NC1=N[C@H](O)[C@H]2[C@H]3O[C@]4(O)O[C@@H]([C@@H](O)[C@@]2(N1)[C@@H]4O)[C@]3(O)CO [TTX, tetrodotoxin, reference compound]
Mean Diff. of persistent current, ExTxA vs. TTX [8]: 0.1483
Mean Diff. of persistent current, ExTxA vs. ExTxA + TTX [9]: 0.5123
Mean Diff. of persistent current, ExTxA vs. ExTxA + TTX [10]: 0.2464

C[C@@H]1O[C@@H](O[C@H]2C[C@@H](O)[C@]3(CO)[C@H]4[C@H](O)C[C@]5(C)[C@@H](C6=CC(=O)OC6)CC[C@]5(O)[C@@H]4CC[C@]3(O)C2)[C@H](O)[C@H](O)[C@H]1O [ouabain, reference compound]
cytotoxicity of the concentration used [11]: non-cytotoxic

COc1ccc(C(=O)O[C@H]2CC[C@@]3(C)[C@@H]4CC[C@H]5[C@]6(O)C[C@H](O)[C@@]7(O)[C@@H](CN8C[C@@H](C)CC[C@H]8[C@@]7(C)O)[C@]6(O)C[C@@]53O[C@]24O)cc1OC [veratridine, reference compound]
cytotoxicity of the concentration used [11]: non-cytotoxic

BSA control
Tau Fast, individual values [1]: 7.097 and 5.916 and 7.352 and 7.278 and 4.563 and 7.588 and 6.382 and 7.242 and 8.803
Tau Fast, mean [1]: 6.913

FLAG-NaV1.7
particles/cell, mean ([12]; mean of n = 3): 5.245 particles/cell
particles/cell ([12]; replicate 1): 1.95 particles/cell
particles/cell ([12]; replicate 2): 7.467 particles/cell
particles/cell ([12]; replicate 3): 6.319 particles/cell
